{"source": "patent US12337000B2", "about": "“Therapeutic modulators of the reverse mode of ATP synthase” (priority 2017, dated 2025)", "key": {"[1]": {"assay": "Human pharmacokinetics of oral almitrine dimesylate", "assay_type": "in vivo", "conditions": "0.6*17, after 200 mg oral dose"}, "[2]": {"biological_target": "F1F0 ATP synthesis and hydrolysis (Homo sapiens, UniProt P06576+P25705)", "conditions": "isolated mitochondria, no matter how great the concentration [114]; cited from earlier work"}, "[3]": {"conditions": "cited from earlier work"}, "[4]": {"conditions": "humans [121]; cited from earlier work"}, "[5]": {"conditions": "30 year pharmacovigilance survey in France, oral, multi-year use [120]"}}, "data": [{"compound": "C=CCNc1nc(NCC=C)nc(N2CCN(C(c3ccc(F)cc3)c3ccc(F)cc3)CC2)n1", "note": "[almitrine]", "values": [{"measurement": "corresponding tissue concentration (assuming uniform)", "setting": "[1]", "value": "~10", "unit": "µM"}, {"measurement": "maximal decrease in F1F0 ATP synthesis and hydrolysis", "setting": "[2]", "value": "~60", "unit": "%"}, {"measurement": "peripheral neuropathy", "setting": "[3]; [5]", "value": "2,304 cases"}, {"measurement": "weight loss", "setting": "[3]; [5]", "value": 795, "unit": "cases"}, {"measurement": "share of presenting cases categorised as serious", "setting": "[3]; [120]", "value": "< 10", "unit": "%"}, {"measurement": "patients with reversible lactic acidosis and hepatic dysfunction", "setting": "[3]; intravenous 459±155 mg within 24 hours, 25 patients [127]", "value": 30, "unit": "%"}, {"measurement": "mean onset of adverse reactions", "setting": "[3]; oral, chronic use [120]", "value": 11, "unit": "months"}, {"measurement": "volume of distribution (VD)", "setting": "[4]", "value": 17, "unit": "L/kg"}]}]}
